Assay results: patent publication US12285407B2, “Bis-indolylmethane derivatives and uses thereof” (The University of The West Indies, priority 2018, dated 2025)

Experiments:
MRSA = experiment: Adjuvant broth microdilution (antibiotic MIC with SP-BIM at 50 μg/mL); format: cell-based, Staphylococcus aureus; settings: antibiotic alone, Table 4
Streptococcus pneumoniae [1] = experiment: as above; format: cell-based; settings: Streptococcus pneumonia; antibiotic alone; Table 5
Escherichia coli [2] = experiment: microbe, parasite or virus in culture; format: cell-based; settings: antibiotic alone, Table 6
Klebsiella pneumoniae [3] = experiment: Adjuvant broth microdilution (antibiotic MIC with SP-BIM at 50 μg/mL); format: cell-based; settings: Klebsiella pneumoniae; antibiotic alone; Table 7
Staphylococcus aureus = experiment: Checkerboard synergy (FICI) of antibiotics with SP-BIM; format: cell-based; settings: Staphylococcus aureus; for MIC antibiotic only: antibiotic alone
Streptococcus pneumoniae [4] = experiment: as above; format: cell-based; settings: for MIC antibiotic only: antibiotic alone
Bacillus cereus = experiment: as above; format: cell-based; settings: for MIC antibiotic only: antibiotic alone
Enterococcus faecium = experiment: as above; format: cell-based; settings: Enterococcus faecium; for MIC antibiotic only: antibiotic alone
Klebsiella pneumoniae [5] = experiment: as above; format: cell-based; settings: for MIC antibiotic only: antibiotic alone
Escherichia coli [6] = experiment: as above; set-up: MIC SP-BIM 13 only / MIC in combination: Antibiotic: unit not given beside the values; settings: for MIC antibiotic only: antibiotic alone
Candida albicans = experiment: as above; set-up: MIC SP-BIM 13 only / MIC in combination: Antibiotic / MIC antibiotic only: unit not given beside the values
Enterococcus faecalis = experiment: Adjuvant broth microdilution (antibiotic MIC with SP-BIM at 50 μg/mL); format: cell-based; settings: antibiotic alone
clinical strains of MRSA = experiment: Kirby Bauer disc diffusion susceptibility profile; format: cell-based, Staphylococcus aureus; settings: for Zone of clearance: 35° C., 24 hours, average n=3; for Interpretive standard (resistant/susceptible): zones vs EUCAST breakpoints (Table 30)
Escherichia coli O157:H7 = experiment: Rescue concentrations of SP-BIM that reactivate antibiotic; format: cell-based
[7] = SP-BIM 9 concentration in combination with the labelled antibiotic
[8] = SP-BIM 9 in combination with the labelled antibiotic
[9] = SP-BIM 13 concentration in combination with the labelled antibiotic
[10] = SP-BIM 13 in combination with the labelled antibiotic
[11] = antibiotic in combination with SP-BIM 9
[12] = antibiotic in combination with SP-BIM 13
[13] = Streptococcus pneumonia (title: Streptococcus pyogenes), antibiotic + SP-BIM 9
[14] = Streptococcus pneumoniae, antibiotic + SP-BIM 13
[15] = MIC of the antibiotic in combination with SP-BIM 13

CC1=C(C(=O)O)N2C(=O)[C@@H](NC(=O)[C@H](N)c3ccccc3)[C@H]2SC1 [Cephalexin, cefalexin]
MIC of antibiotic, No Compound (MRSA): 16 µg/mL | MIC of antibiotic, No Compound (Streptococcus pneumoniae [1]): 250 µg/mL | MIC of antibiotic, No Compound (Escherichia coli [2]): >250 µg/mL | MIC of antibiotic, No Compound (Klebsiella pneumoniae [3]): 8 µg/mL | MIC in combination, SP-BIM 9 (Staphylococcus aureus; [7]): 16.0 µg/mL | FIC of SP-BIM 9 (Staphylococcus aureus; [8]): 0.06 | MIC in combination, SP-BIM 13 (Staphylococcus aureus; [9]): 63 µg/mL | FIC of SP-BIM 13 (Staphylococcus aureus; [10]): 0.5 | Interpretation (Staphylococcus aureus; antibiotic + SP-BIM 9): Synergy (Synergy: FICI≤0.5) | Σ FIC (Staphylococcus aureus; antibiotic + SP-BIM 9): <0.19 | Interpretation (Staphylococcus aureus; antibiotic + SP-BIM 13): Additive (Additive: FICI>0.5-1.0) | Σ FIC (Staphylococcus aureus; antibiotic + SP-BIM 13): 0.6 | MIC antibiotic only (Staphylococcus aureus; SP-BIM 9 checkerboard): 4 µg/mL | MIC antibiotic only (Staphylococcus aureus; SP-BIM 13 checkerboard): 4 µg/mL | MIC in combination, Antibiotic (Staphylococcus aureus; [11]): 0.5 µg/mL | MIC in combination, Antibiotic (Staphylococcus aureus; [12]): 0.5 µg/mL | FIC of antibiotic (Staphylococcus aureus; in combination with SP-BIM 9): 0.13 | FIC of antibiotic (Staphylococcus aureus; in combination with SP-BIM 13): 0.1 | MIC in combination, SP-BIM 9 (Streptococcus pneumoniae [4]; Streptococcus pneumonia (title: Streptococcus pyogenes), SP-BIM 9 concentration in combination with the labelled antibiotic): 125 µg/mL | FIC of SP-BIM 9 (Streptococcus pneumoniae [4]; Streptococcus pneumonia (title: Streptococcus pyogenes), SP-BIM 9 in combination with the labelled antibiotic): 0.50 | Interpretation (Streptococcus pneumoniae [4]; [13]): Additive (Additive: FICI>0.5-1.0) | Σ FIC (Streptococcus pneumoniae [4]; [13]): <0.63 | MIC antibiotic only (Streptococcus pneumoniae [4]; Streptococcus pneumonia (title: Streptococcus pyogenes), SP-BIM 9 checkerboard): 250 µg/mL | MIC in combination, Antibiotic (Streptococcus pneumoniae [4]; Streptococcus pneumonia (title: Streptococcus pyogenes), antibiotic in combination with SP-BIM 9): 32 µg/mL | FIC of antibiotic (Streptococcus pneumoniae [4]; Streptococcus pneumonia (title: Streptococcus pyogenes), in combination with SP-BIM 9): 0.13 | MIC in combination, SP-BIM 13 (Streptococcus pneumoniae [4]; Streptococcus pneumoniae, SP-BIM 13 concentration in combination with the labelled antibiotic): 63 µg/mL | FIC of SP-BIM 13 (Streptococcus pneumoniae [4]; Streptococcus pneumoniae, SP-BIM 13 in combination with the labelled antibiotic): 0.3 | Interpretation (Streptococcus pneumoniae [4]; [14]): Synergy (Synergy: FICI≤0.5) | Σ FIC (Streptococcus pneumoniae [4]; [14]): <0.3 | MIC antibiotic only (Streptococcus pneumoniae [4]; Streptococcus pneumoniae, SP-BIM 13 checkerboard): 250 µg/mL | MIC in combination, Antibiotic (Streptococcus pneumoniae [4]; Streptococcus pneumoniae, antibiotic in combination with SP-BIM 13): 2 µg/mL | FIC of antibiotic (Streptococcus pneumoniae [4]; Streptococcus pneumoniae, in combination with SP-BIM 13): 0.0 | MIC in combination, SP-BIM 13 (Bacillus cereus; [9]): 32 µg/mL | FIC of SP-BIM 13 (Bacillus cereus; [10]): 0.1 | Interpretation (Bacillus cereus; antibiotic + SP-BIM 13): Synergy (Synergy: FICI≤0.5) | Σ FIC (Bacillus cereus; antibiotic + SP-BIM 13): <0.1 | MIC antibiotic only (Bacillus cereus; SP-BIM 9 checkerboard): >250 µg/mL | MIC antibiotic only (Bacillus cereus; SP-BIM 13 checkerboard): 250 µg/mL | MIC in combination, Antibiotic (Bacillus cereus; [12]): 4 µg/mL | FIC of antibiotic (Bacillus cereus; in combination with SP-BIM 13): 0.02 | MIC in combination, SP-BIM 13 (Enterococcus faecium; [9]): 63 µg/mL | FIC of SP-BIM 13 (Enterococcus faecium; [10]): 0.5 | Interpretation (Enterococcus faecium; antibiotic + SP-BIM 13): Synergy (Synergy: FICI≤0.5) | Σ FIC (Enterococcus faecium; antibiotic + SP-BIM 13): 0.5 | MIC antibiotic only (Enterococcus faecium; SP-BIM 9 checkerboard): 250 µg/mL | MIC antibiotic only (Enterococcus faecium; SP-BIM 13 checkerboard): 250 µg/mL | MIC in combination, Antibiotic (Enterococcus faecium; [12]): 8 µg/mL | FIC of antibiotic (Enterococcus faecium; in combination with SP-BIM 13): 0.0 | MIC in combination, SP-BIM 9 (Klebsiella pneumoniae [5]; [7]): 125 µg/mL | FIC of SP-BIM 9 (Klebsiella pneumoniae [5]; [8]): 0.5 | MIC in combination, SP-BIM 13 (Klebsiella pneumoniae [5]; [9]): 63 µg/mL | FIC of SP-BIM 13 (Klebsiella pneumoniae [5]; [10]): 0.3 | Interpretation (Klebsiella pneumoniae [5]; antibiotic + SP-BIM 9): Synergy (Synergy: FICI≤0.5) | Σ FIC (Klebsiella pneumoniae [5]; antibiotic + SP-BIM 9): <0.5 | Interpretation (Klebsiella pneumoniae [5]; antibiotic + SP-BIM 13): Synergy (Synergy: FICI≤0.5) | Σ FIC (Klebsiella pneumoniae [5]; antibiotic + SP-BIM 13): <0.5 | MIC antibiotic only (Klebsiella pneumoniae [5]; SP-BIM 9 checkerboard): 250 µg/mL | MIC antibiotic only (Klebsiella pneumoniae [5]; SP-BIM 13 checkerboard): 250 µg/mL | MIC in combination, Antibiotic (Klebsiella pneumoniae [5]; [11]): 4 µg/mL | MIC in combination, Antibiotic (Klebsiella pneumoniae [5]; [12]): 63 µg/mL | FIC of antibiotic (Klebsiella pneumoniae [5]; in combination with SP-BIM 9): 0.016 | FIC of antibiotic (Klebsiella pneumoniae [5]; in combination with SP-BIM 13): 0.3 | MIC in combination: Antibiotic (Escherichia coli [6]; [15]): 125 | MIC in combination, SP-BIM 9 (Escherichia coli [6]; [7]): 125 µg/mL | FIC of SP-BIM 9 (Escherichia coli [6]; [8]): 0.5 | FIC of SP-BIM 13 (Escherichia coli [6]; [10]): 0.3 | Interpretation (Escherichia coli [6]; antibiotic + SP-BIM 9): Synergy (Synergy: FICI≤0.5) | Σ FIC (Escherichia coli [6]; antibiotic + SP-BIM 9): <0.6 | Interpretation (Escherichia coli [6]; antibiotic + SP-BIM 13): Additive (Additive: FICI>0.5-1.0) | Σ FIC (Escherichia coli [6]; antibiotic + SP-BIM 13): <0.8 | MIC antibiotic only (Escherichia coli [6]): >250 | MIC antibiotic only (Escherichia coli [6]; SP-BIM 9 checkerboard): 250 µg/mL | MIC in combination, Antibiotic (Escherichia coli [6]; [11]): 16 µg/mL | FIC of antibiotic (Escherichia coli [6]; combination with SP-BIM 13): 0.5 | FIC of antibiotic (Escherichia coli [6]; in combination with SP-BIM 9): 0.064 | MIC in combination: Antibiotic (Candida albicans; [15]): 63 | FIC of SP-BIM 13 (Candida albicans; [10]): 0.5 | Interpretation (Candida albicans; antibiotic + SP-BIM 13): Additive (Additive: FICI>0.5-1.0) | Σ FIC (Candida albicans; antibiotic + SP-BIM 13): <0.8 | MIC antibiotic only (Candida albicans; antibiotic alone): >250 | FIC of antibiotic (Candida albicans; combination with SP-BIM 13): 0.3

NC[C@H]1O[C@H](O[C@H]2[C@H](O)[C@@H](O[C@H]3O[C@H](CO)[C@@H](O)[C@H](N)[C@H]3O)[C@H](N)C[C@@H]2N)[C@H](O)[C@@H](O)[C@@H]1O [Kanamycin, kanamycin]
MIC of antibiotic, No Compound (Enterococcus faecalis): 250 µg/mL | Zone of clearance (clinical strains of MRSA; MRSA strain 1594): 11.5 mm | Interpretive standard (resistant/susceptible) (clinical strains of MRSA; MRSA strain 1594): R | Zone of clearance (clinical strains of MRSA; MRSA strain 1621): 19.5 mm | Interpretive standard (resistant/susceptible) (clinical strains of MRSA; MRSA strain 1621): S | Zone of clearance (clinical strains of MRSA; MRSA strain 5455): 19.5 mm | Interpretive standard (resistant/susceptible) (clinical strains of MRSA; MRSA strain 5455): S | Zone of clearance (clinical strains of MRSA; MRSA strain 5872): 0.0 mm | Interpretive standard (resistant/susceptible) (clinical strains of MRSA; MRSA strain 5872): R | Zone of clearance (clinical strains of MRSA; MRSA strain 7153): 19.5 mm | Interpretive standard (resistant/susceptible) (clinical strains of MRSA; MRSA strain 7153): S | Zone of clearance (clinical strains of MRSA; MRSA strain 7172): 20.5 mm | Interpretive standard (resistant/susceptible) (clinical strains of MRSA; MRSA strain 7172): S | Zone of clearance (clinical strains of MRSA; MRSA strain 7698): 8.5 mm | Interpretive standard (resistant/susceptible) (clinical strains of MRSA; MRSA strain 7698): R | Zone of clearance (clinical strains of MRSA; MRSA strain 10132): 8.0 mm | Interpretive standard (resistant/susceptible) (clinical strains of MRSA; MRSA strain 10132): R | MIC of Kanamycin in combination with 32 μg/mL SP-BIM 28 (Escherichia coli O157:H7; E. coli O157:H7, with 32 μg/mL SP-BIM 28): 1 µg/mL | MIC (Escherichia coli O157:H7; Escherichia coli, read-out: MIC of Kanamycin): 8 µg/mL
